In patent publication US10281476B2, “Methods to identify modulators of RyR calcium channels” (REGENTS OF THE UNIVERSITY OF MINNESOTA, priority 2013, dated 2019):
Where no end group is shown, it is not given here.

Target: RyR2 (Rattus norvegicus, UniProt B0LPN4)
Experiment: Steady-state F-DPc10 binding at the Z-line of saponin-permeabilized myocytes (confocal)
Parameters: endogenous in cells; host or cells: saponin-permeabilized adult rat ventricular myocytes
Method: Rat ventricular myocytes were isolated and permeabilized as previously described (Li et al., Circ Res, 2002; 90:309-316). All procedures were performed according to the Guiding Principles in the Care and Use of the Animals and were approved by the Council of American Physiological Society. DPc10, FKBP12.6, and CaM were labeled at specific sites with small fluorescence probes, similar to our previous studies (Guo et al., Circ Res, 2010; 106:1743-1752; Cornea et al., PNAS USA, 2009; 106:6128-6133; Guo et al., Biophys J, 2011; 101:2170-2177).
Confocal images was measured using a Biorad RADIANCE2100™ laser scanning confocal microscope equipped with an Argon ion laser, Green HeNe laser and with a Nikon Fluo x40 oil lens. FRET (fluorescence resonance energy transfer) experiments between CaM and DPc10, and FKBP12.6 and DPc10 were performed using an Olympus FV1000 confocal microscope. All experiments were done at room temperature.
Myocytes were exposed to […] F-DPc10, with intracellular [Ca^2+] ([Ca^2+]i) set at 50 nmol/L. F-DPc10 fluorescence is highest at the Z-lines, where RyR2 is concentrated, forming a typical cross-striated pattern. The difference between fluorescence intensity at the Z-line (Fz) and M-line (FM) is taken to represent [F-DPc10] specifically bound at the myocyte Z-line. We calibrated the bound [F-DPc10] in permeabilized myocytes using the linear relationship between F-DPc10 fluorescence and bath [F-DPc10] (FIG. 7B). […] To further test whether this Z-line-associated F-DPc10 represents RyR2-bound F-DPc10, we measured FRET between FKBP12.6 (known to specifically bind to RyR2 with subnanomolar affinity) (Guo et al., Circ Res, 2010; 106:1743-1752) and F-DPc10. […] Donor (AF568-FKBP12.6) fluorescence at the Z-line was quenched by HF647-DPc10, but the M-line signal was not (FIG. 9B). […]

Chain of RyR2 (B0LPN4 whole entry): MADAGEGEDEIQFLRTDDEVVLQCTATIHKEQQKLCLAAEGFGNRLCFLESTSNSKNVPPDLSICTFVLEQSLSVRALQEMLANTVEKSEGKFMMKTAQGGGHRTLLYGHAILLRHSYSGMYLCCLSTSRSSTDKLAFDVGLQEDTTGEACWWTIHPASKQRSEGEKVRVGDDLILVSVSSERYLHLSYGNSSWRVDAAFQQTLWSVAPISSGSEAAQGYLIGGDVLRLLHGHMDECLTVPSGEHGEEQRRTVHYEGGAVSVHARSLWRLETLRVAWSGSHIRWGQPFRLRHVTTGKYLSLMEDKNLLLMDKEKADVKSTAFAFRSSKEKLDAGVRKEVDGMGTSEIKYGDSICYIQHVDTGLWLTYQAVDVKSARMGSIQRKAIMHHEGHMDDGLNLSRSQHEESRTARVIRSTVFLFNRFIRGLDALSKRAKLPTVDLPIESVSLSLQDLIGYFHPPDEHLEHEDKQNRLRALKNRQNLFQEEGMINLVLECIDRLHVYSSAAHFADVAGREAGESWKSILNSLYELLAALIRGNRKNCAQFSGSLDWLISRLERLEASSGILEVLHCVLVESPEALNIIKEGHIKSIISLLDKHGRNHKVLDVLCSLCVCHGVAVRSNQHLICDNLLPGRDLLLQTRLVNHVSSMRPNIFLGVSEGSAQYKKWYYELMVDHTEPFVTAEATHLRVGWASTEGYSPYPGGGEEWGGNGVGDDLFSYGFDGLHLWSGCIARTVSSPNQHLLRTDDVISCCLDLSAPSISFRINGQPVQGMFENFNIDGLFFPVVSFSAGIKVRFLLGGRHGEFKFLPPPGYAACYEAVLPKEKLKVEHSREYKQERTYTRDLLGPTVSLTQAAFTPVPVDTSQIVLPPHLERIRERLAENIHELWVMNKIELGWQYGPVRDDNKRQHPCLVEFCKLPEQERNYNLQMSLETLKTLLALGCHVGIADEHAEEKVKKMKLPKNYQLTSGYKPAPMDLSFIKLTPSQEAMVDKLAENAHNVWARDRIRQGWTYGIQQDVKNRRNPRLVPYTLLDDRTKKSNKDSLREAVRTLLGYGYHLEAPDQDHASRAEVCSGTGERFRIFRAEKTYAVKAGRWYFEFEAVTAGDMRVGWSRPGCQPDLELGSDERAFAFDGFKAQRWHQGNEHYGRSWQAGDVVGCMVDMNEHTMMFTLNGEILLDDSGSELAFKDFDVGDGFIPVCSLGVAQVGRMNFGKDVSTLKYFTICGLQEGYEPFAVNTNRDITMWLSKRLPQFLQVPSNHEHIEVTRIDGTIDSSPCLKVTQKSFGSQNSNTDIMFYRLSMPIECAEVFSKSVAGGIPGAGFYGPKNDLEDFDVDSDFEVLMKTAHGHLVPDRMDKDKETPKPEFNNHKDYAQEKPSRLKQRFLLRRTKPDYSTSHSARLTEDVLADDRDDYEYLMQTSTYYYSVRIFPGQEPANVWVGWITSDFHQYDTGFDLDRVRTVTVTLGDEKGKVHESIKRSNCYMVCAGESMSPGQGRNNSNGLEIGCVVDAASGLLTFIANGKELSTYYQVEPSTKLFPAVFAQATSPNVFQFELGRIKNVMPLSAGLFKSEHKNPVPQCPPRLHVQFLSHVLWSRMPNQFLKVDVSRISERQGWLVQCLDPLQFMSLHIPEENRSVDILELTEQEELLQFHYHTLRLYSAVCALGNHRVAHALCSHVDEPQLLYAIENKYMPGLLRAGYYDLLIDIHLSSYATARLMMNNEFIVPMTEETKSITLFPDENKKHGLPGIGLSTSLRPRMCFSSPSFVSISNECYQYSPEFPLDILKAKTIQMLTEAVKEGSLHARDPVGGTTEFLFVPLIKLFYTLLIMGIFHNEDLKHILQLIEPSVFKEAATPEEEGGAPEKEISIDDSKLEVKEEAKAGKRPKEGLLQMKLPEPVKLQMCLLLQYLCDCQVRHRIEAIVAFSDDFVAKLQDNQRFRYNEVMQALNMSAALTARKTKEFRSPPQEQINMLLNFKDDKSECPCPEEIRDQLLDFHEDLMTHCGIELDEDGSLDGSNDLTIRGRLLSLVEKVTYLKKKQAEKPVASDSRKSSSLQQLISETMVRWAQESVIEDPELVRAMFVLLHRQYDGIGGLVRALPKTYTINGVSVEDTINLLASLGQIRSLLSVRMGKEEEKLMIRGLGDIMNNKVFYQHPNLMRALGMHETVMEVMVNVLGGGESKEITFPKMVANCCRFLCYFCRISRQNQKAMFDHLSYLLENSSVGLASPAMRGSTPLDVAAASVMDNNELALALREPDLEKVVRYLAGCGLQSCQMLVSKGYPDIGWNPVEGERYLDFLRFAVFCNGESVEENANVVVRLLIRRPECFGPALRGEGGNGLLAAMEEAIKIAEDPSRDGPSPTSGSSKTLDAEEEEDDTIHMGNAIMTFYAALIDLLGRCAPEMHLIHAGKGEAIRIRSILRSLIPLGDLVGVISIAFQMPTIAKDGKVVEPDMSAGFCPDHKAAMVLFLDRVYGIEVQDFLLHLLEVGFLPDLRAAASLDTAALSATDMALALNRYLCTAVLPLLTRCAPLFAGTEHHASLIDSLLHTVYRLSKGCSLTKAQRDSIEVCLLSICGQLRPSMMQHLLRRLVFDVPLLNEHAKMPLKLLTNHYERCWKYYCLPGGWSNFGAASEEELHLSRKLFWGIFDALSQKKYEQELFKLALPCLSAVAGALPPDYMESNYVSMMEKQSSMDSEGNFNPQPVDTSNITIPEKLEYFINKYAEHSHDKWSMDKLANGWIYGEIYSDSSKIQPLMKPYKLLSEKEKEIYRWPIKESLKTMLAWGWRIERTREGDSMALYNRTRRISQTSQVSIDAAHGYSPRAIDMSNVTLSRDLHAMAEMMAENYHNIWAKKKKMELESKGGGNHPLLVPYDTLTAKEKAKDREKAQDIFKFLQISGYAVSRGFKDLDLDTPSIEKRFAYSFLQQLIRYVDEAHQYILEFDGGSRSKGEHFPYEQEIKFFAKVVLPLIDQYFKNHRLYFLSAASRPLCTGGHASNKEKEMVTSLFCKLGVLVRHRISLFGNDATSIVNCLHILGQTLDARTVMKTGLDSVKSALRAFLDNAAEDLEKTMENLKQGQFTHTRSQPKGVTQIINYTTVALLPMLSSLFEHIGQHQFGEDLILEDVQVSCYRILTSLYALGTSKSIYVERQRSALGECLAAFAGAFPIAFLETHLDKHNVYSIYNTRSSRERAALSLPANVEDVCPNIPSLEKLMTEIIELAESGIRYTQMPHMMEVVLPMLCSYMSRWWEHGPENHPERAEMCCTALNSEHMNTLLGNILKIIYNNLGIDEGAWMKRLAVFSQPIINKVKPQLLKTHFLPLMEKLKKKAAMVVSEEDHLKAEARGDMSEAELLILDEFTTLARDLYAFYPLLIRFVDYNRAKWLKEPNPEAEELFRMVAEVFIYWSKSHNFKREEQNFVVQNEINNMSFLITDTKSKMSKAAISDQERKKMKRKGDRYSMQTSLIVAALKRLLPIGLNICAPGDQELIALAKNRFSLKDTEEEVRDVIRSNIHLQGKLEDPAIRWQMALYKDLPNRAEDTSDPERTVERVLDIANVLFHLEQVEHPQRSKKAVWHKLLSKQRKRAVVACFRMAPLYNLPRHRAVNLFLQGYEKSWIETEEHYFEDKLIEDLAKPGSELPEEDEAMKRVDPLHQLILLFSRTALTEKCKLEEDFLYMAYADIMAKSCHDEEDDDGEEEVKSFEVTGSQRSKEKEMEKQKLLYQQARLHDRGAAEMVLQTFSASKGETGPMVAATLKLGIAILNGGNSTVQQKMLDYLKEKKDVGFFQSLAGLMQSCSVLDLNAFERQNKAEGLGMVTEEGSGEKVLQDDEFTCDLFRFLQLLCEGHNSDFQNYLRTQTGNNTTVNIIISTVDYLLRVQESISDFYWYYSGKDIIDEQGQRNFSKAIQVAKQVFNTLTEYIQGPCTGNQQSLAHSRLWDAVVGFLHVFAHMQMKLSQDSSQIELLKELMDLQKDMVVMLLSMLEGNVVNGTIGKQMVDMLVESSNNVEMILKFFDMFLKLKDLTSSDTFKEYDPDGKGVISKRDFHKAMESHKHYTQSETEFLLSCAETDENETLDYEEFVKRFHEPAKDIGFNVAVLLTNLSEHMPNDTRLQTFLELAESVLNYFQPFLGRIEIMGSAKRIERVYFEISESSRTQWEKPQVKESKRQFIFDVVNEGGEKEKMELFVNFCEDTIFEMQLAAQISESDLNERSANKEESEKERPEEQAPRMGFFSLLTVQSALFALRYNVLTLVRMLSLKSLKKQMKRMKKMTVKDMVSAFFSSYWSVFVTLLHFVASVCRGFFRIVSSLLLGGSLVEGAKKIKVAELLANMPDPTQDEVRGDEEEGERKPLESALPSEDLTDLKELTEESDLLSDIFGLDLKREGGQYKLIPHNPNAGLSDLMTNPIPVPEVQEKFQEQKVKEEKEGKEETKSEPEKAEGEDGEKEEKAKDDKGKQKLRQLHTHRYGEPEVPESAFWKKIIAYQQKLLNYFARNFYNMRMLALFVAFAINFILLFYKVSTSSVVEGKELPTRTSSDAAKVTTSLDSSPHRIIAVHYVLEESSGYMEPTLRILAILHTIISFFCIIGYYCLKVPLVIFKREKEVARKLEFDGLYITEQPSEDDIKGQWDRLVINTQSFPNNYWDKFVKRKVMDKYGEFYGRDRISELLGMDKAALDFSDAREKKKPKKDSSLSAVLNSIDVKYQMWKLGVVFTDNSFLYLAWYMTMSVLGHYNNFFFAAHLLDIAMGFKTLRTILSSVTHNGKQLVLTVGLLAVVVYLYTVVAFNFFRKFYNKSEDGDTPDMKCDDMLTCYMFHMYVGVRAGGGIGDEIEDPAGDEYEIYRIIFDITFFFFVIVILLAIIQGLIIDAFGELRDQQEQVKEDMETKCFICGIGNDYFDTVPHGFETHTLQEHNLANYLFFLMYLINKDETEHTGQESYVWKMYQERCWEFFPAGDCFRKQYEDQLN

Sequence: GFCPDHKAAMVLFLDRVYGIEVQDFLLHLLEVGFLP [DPc10]
- Kd: ~500 nM
- Bmax value (summary in Discussion): 1.6 µmol/L
